Results as given in PMC4300089, “Structure-Guided Design of Selective Epac1 and Epac2 Agonists” (PLoS Biology, 2015).
Positions count from the first letter of the chain named. “And” between values parts separate entries of the source, which are not always exact repeats. Equal entries are not always repeated.

What was measured:
Epac2^Δ280 = target: T1, Epac2^Δ280 (Mus musculus, UniProt Q9EQZ6); assay: Epac activation assay (Rap1B•mGDP fluorescence nucleotide exchange), Epac2^Δ280; format: biochemical; conditions: for AC50 / Rel. kmax: Epac2^Δ280; for Rel. kmax: maximal activity relative to cAMP
T1 construct: made in house
T1 sequence (Q9EQZ6 281-993 isoform Q9EQZ6-3): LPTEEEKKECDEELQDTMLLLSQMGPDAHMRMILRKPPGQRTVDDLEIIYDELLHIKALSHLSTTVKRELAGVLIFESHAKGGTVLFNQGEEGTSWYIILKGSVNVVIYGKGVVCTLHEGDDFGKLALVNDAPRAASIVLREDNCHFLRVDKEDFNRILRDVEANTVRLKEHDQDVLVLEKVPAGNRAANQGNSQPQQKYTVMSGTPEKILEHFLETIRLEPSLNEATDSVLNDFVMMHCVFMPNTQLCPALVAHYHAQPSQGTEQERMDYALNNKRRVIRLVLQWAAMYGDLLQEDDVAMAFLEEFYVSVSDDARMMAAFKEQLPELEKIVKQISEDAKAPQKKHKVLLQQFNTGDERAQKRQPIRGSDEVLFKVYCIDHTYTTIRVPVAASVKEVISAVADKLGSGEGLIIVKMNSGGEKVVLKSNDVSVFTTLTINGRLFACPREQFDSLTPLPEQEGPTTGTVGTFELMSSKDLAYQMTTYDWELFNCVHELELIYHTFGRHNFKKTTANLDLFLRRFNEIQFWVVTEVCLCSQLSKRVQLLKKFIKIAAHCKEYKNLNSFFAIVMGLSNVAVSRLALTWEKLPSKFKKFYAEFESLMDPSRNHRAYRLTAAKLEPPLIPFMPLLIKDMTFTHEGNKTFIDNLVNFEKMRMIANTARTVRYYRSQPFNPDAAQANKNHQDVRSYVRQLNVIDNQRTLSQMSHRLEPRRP
Method: (§1) Murine Epac2 was used as all previous structural studies were performed with it.
(§2) The activity of Epac was determined by a fluorescence assay. […] The fluorescence intensity of Rap1B•mGDP is approximately twice that of free mGDP, and thus, nucleotide exchange can be observed as a decay in fluorescence upon the addition of excess unlabeled GDP.

Epac2^Δ280,K450E = target: T2, Epac2^Δ280,K450E (Mus musculus, UniProt Q9EQZ6, K468E); assay: Epac activation assay, Epac2 K450E mutant; format: biochemical
T2 construct: made in house
T2 sequence (Q9EQZ6 281-993 isoform Q9EQZ6-3 K450E): T1 sequence (Q9EQZ6 281-993 isoform Q9EQZ6-3) with K170E
Method: as §1, §2

Cc1ccc(CSc2nc3c(N)ncnc3n2[C@@H]2O[C@@H]3CO[P@](O)(=S)O[C@H]3[C@H]2O)cc1 [S-230, Sp-8-pMeBnT-cAMPS]
kobs (Epac2^Δ280; 0.01 μM compound): 3.1e-05 s⁻¹
kobs (Epac2^Δ280; 0.03 μM compound): 5.1e-05 s⁻¹
kobs (Epac2^Δ280; 0.04 μM compound): 5.8e-05 s⁻¹
kobs (Epac2^Δ280; 0.05 μM compound): 6.5e-05 s⁻¹
kobs (Epac2^Δ280; 0.06 μM compound): 6.9e-05 s⁻¹
kobs (Epac2^Δ280; 0.07 μM compound): 7.9e-05 s⁻¹
kobs (Epac2^Δ280; 0.08 μM compound): 8.9e-05 s⁻¹
kobs (Epac2^Δ280; 0.1 μM compound): 0.000108 s⁻¹
kobs (Epac2^Δ280; 0.2 μM compound): 0.000191 s⁻¹
kobs (Epac2^Δ280; 0.3 μM compound): 0.000259 s⁻¹
kobs (Epac2^Δ280; 0.4 μM compound): 0.000337 s⁻¹
kobs (Epac2^Δ280; 0.5 μM compound): 0.000361 s⁻¹
kobs (Epac2^Δ280; 0.6 μM compound): 0.000448 s⁻¹
kobs (Epac2^Δ280; 0.7 μM compound): 0.000484 s⁻¹
kobs (Epac2^Δ280; 0.8 μM compound): 0.000517 s⁻¹
kobs (Epac2^Δ280; 1 μM compound): 0.000599 s⁻¹
kobs (Epac2^Δ280; 2 μM compound): 0.000852 s⁻¹
kobs (Epac2^Δ280; 3 μM compound): 0.00104 s⁻¹
kobs (Epac2^Δ280; 4 μM compound): 0.00107 s⁻¹
kobs (Epac2^Δ280; 5 μM compound): 0.00111 s⁻¹
kobs (Epac2^Δ280; 6 μM compound): 0.00117 s⁻¹
kobs (Epac2^Δ280; 7 μM compound): 0.00124 s⁻¹
kobs (Epac2^Δ280; 8 μM compound): 0.00123 s⁻¹
kobs (Epac2^Δ280; 10 μM compound): 0.00132 s⁻¹
kobs (Epac2^Δ280; 20 μM compound): 0.00148 s⁻¹
kobs (Epac2^Δ280; 30 μM compound): 0.00149 s⁻¹
kobs (Epac2^Δ280; 40 μM compound): 0.00149 s⁻¹
kobs (Epac2^Δ280; 50 μM compound): 0.00145 s⁻¹
kobs (Epac2^Δ280; 60 μM compound): 0.00145 s⁻¹
kobs (Epac2^Δ280; 70 μM compound): 0.00142 s⁻¹
kobs (Epac2^Δ280; 80 μM compound): 0.00143 s⁻¹
kobs (Epac2^Δ280; 100 μM compound): 0.00145 s⁻¹
AC50 (Epac2^Δ280): 70 nM
Rel. kmax (Epac2^Δ280): 6.4

Nc1ncnc2c1ncn2C1OC2COP(O)(=S)OC2C1O (stereo not shown) [S-000, Sp-cAMPS]
kobs (Epac2^Δ280,K450E; 0.01 μM compound): 4.6e-05 s⁻¹
kobs (Epac2^Δ280,K450E; 0.05 μM compound): 6.3e-05 s⁻¹
kobs (Epac2^Δ280,K450E; 0.08 μM compound): 7.4e-05 s⁻¹
kobs (Epac2^Δ280,K450E; 0.1 μM compound): 8e-05 s⁻¹ and 9.8e-05 s⁻¹
kobs (Epac2^Δ280,K450E; 0.3 μM compound): 0.000139 s⁻¹
kobs (Epac2^Δ280,K450E; 0.4 μM compound): 0.000171 s⁻¹
kobs (Epac2^Δ280,K450E; 0.5 μM compound): 0.000194 s⁻¹
kobs (Epac2^Δ280,K450E; 0.6 μM compound): 0.000231 s⁻¹
kobs (Epac2^Δ280,K450E; 0.7 μM compound): 0.000249 s⁻¹
kobs (Epac2^Δ280,K450E; 0.8 μM compound): 0.000268 s⁻¹
kobs (Epac2^Δ280,K450E; 1 μM compound): 0.000297 s⁻¹
kobs (Epac2^Δ280,K450E; 2 μM compound): 0.000427 s⁻¹
kobs (Epac2^Δ280,K450E; 3 μM compound): 0.000527 s⁻¹
kobs (Epac2^Δ280,K450E; 4 μM compound): 0.000575 s⁻¹
kobs (Epac2^Δ280,K450E; 5 μM compound): 0.000593 s⁻¹
kobs (Epac2^Δ280,K450E; 6 μM compound): 0.000641 s⁻¹
kobs (Epac2^Δ280,K450E; 7 μM compound): 0.000636 s⁻¹
kobs (Epac2^Δ280,K450E; 8 μM compound): 0.00067 s⁻¹
kobs (Epac2^Δ280,K450E; 10 μM compound): 0.000647 s⁻¹
kobs (Epac2^Δ280,K450E; 20 μM compound): 0.000817 s⁻¹
kobs (Epac2^Δ280,K450E; 30 μM compound): 0.000851 s⁻¹
kobs (Epac2^Δ280,K450E; 40 μM compound): 0.00083 s⁻¹
kobs (Epac2^Δ280,K450E; 50 μM compound): 0.000833 s⁻¹
kobs (Epac2^Δ280,K450E; 60 μM compound): 0.000819 s⁻¹
kobs (Epac2^Δ280,K450E; 70 μM compound): 0.000826 s⁻¹
kobs (Epac2^Δ280,K450E; 80 μM compound): 0.000827 s⁻¹
kobs (Epac2^Δ280,K450E; 100 μM compound): 0.000823 s⁻¹
kobs (Epac2^Δ280; 0.01 μM compound): 2.4e-05 s⁻¹
kobs (Epac2^Δ280; 0.05 μM compound): 3.7e-05 s⁻¹
kobs (Epac2^Δ280; 0.08 μM compound): 4.4e-05 s⁻¹
kobs (Epac2^Δ280; 0.1 μM compound): 4.8e-05 s⁻¹
kobs (Epac2^Δ280; 0.2 μM compound): 7.3e-05 s⁻¹
kobs (Epac2^Δ280; 0.3 μM compound): 9.9e-05 s⁻¹
kobs (Epac2^Δ280; 0.4 μM compound): 0.000122 s⁻¹
kobs (Epac2^Δ280; 0.5 μM compound): 0.000139 s⁻¹
kobs (Epac2^Δ280; 0.6 μM compound): 0.000141 s⁻¹
kobs (Epac2^Δ280; 0.7 μM compound): 0.000159 s⁻¹
kobs (Epac2^Δ280; 0.8 μM compound): 0.000171 s⁻¹
kobs (Epac2^Δ280; 1 μM compound): 0.000175 s⁻¹
kobs (Epac2^Δ280; 2 μM compound): 0.000357 s⁻¹
kobs (Epac2^Δ280; 3 μM compound): 0.000431 s⁻¹
kobs (Epac2^Δ280; 4 μM compound): 0.000482 s⁻¹
kobs (Epac2^Δ280; 5 μM compound): 0.000505 s⁻¹
kobs (Epac2^Δ280; 6 μM compound): 0.000495 s⁻¹
kobs (Epac2^Δ280; 7 μM compound): 0.000524 s⁻¹
kobs (Epac2^Δ280; 8 μM compound): 0.000525 s⁻¹
kobs (Epac2^Δ280; 10 μM compound): 0.000559 s⁻¹
kobs (Epac2^Δ280; 20 μM compound): 0.0007 s⁻¹
kobs (Epac2^Δ280; 30 μM compound): 0.000741 s⁻¹
kobs (Epac2^Δ280; 40 μM compound): 0.000742 s⁻¹
kobs (Epac2^Δ280; 50 μM compound): 0.000724 s⁻¹
kobs (Epac2^Δ280; 60 μM compound): 0.000763 s⁻¹
kobs (Epac2^Δ280; 70 μM compound): 0.000779 s⁻¹
kobs (Epac2^Δ280; 80 μM compound): 0.000793 s⁻¹
kobs (Epac2^Δ280; 100 μM compound): 0.000771 s⁻¹
AC50 (Epac2^Δ280): 2800 nM
Rel. kmax (Epac2^Δ280): 2.5

Nc1ncnc2c1ncn2[C@@H]1O[C@@H]2COP(=O)(O)O[C@H]2[C@H]1O [cAMP, reference compound]
kobs (Epac2^Δ280,K450E; 0.01 μM compound): 3.01e-05 s⁻¹
kobs (Epac2^Δ280,K450E; 0.05 μM compound): 4.19e-05 s⁻¹
kobs (Epac2^Δ280,K450E; 0.08 μM compound): 5.14e-05 s⁻¹
kobs (Epac2^Δ280,K450E; 0.1 μM compound): 5.5e-05 s⁻¹
kobs (Epac2^Δ280,K450E; 0.2 μM compound): 8.25e-05 s⁻¹
kobs (Epac2^Δ280,K450E; 0.3 μM compound): 9.73e-05 s⁻¹
kobs (Epac2^Δ280,K450E; 0.4 μM compound): 0.000114 s⁻¹
kobs (Epac2^Δ280,K450E; 0.5 μM compound): 0.000124 s⁻¹
kobs (Epac2^Δ280,K450E; 0.6 μM compound): 0.000146 s⁻¹
kobs (Epac2^Δ280,K450E; 0.7 μM compound): 0.000155 s⁻¹
kobs (Epac2^Δ280,K450E; 0.8 μM compound): 0.000161 s⁻¹
kobs (Epac2^Δ280,K450E; 1 μM compound): 0.00017 s⁻¹
kobs (Epac2^Δ280,K450E; 2 μM compound): 0.000246 s⁻¹
kobs (Epac2^Δ280,K450E; 3 μM compound): 0.000274 s⁻¹
kobs (Epac2^Δ280,K450E; 4 μM compound): 0.000285 s⁻¹
kobs (Epac2^Δ280,K450E; 5 μM compound): 0.000283 s⁻¹
kobs (Epac2^Δ280,K450E; 6 μM compound): 0.000286 s⁻¹
kobs (Epac2^Δ280,K450E; 7 μM compound): 0.000293 s⁻¹
kobs (Epac2^Δ280,K450E; 8 μM compound): 0.000295 s⁻¹
kobs (Epac2^Δ280,K450E; 10 μM compound): 0.000299 s⁻¹
kobs (Epac2^Δ280,K450E; 20 μM compound): 0.000336 s⁻¹
kobs (Epac2^Δ280,K450E; 30 μM compound): 0.000329 s⁻¹
kobs (Epac2^Δ280,K450E; 40 μM compound): 0.000336 s⁻¹
kobs (Epac2^Δ280,K450E; 50 μM compound): 0.000327 s⁻¹
kobs (Epac2^Δ280,K450E; 60 μM compound): 0.000303 s⁻¹
kobs (Epac2^Δ280,K450E; 70 μM compound): 0.000306 s⁻¹
kobs (Epac2^Δ280,K450E; 80 μM compound): 0.000304 s⁻¹
kobs (Epac2^Δ280,K450E; 100 μM compound): 0.000294 s⁻¹
kobs (Epac2^Δ280; 0.4 μM compound): 9.9e-05 s⁻¹
kobs (Epac2^Δ280; 0.5 μM compound): 0.000111 s⁻¹
kobs (Epac2^Δ280; 0.6 μM compound): 0.000113 s⁻¹
kobs (Epac2^Δ280; 0.7 μM compound): 0.000125 s⁻¹
kobs (Epac2^Δ280; 0.8 μM compound): 0.000132 s⁻¹
kobs (Epac2^Δ280; 1 μM compound): 0.000141 s⁻¹
kobs (Epac2^Δ280; 2 μM compound): 0.000207 s⁻¹
kobs (Epac2^Δ280; 3 μM compound): 0.000246 s⁻¹
kobs (Epac2^Δ280; 4 μM compound): 0.000263 s⁻¹
kobs (Epac2^Δ280; 5 μM compound): 0.000273 s⁻¹
kobs (Epac2^Δ280; 6 μM compound): 0.000293 s⁻¹
kobs (Epac2^Δ280; 7 μM compound): 0.000298 s⁻¹
kobs (Epac2^Δ280; 8 μM compound): 0.000303 s⁻¹
kobs (Epac2^Δ280; 10 μM compound): 0.00031 s⁻¹
kobs (Epac2^Δ280; 20 μM compound): 0.000328 s⁻¹
kobs (Epac2^Δ280; 30 μM compound): 0.000331 s⁻¹
share of cAMP bound protein still in an inactive conformation (Epac2^Δ280; Epac2, assuming the most efficient activators shift the equilibrium fully): ~85%
